ChEMBL document CHEMBL3217532, “New analyses of MIC90 data to aid antibacterial drug discovery” (2011)
In brackets after ≈: the same amount, converted by molar mass.

Tests used:
Format in all cases: functional
Pseudomonas aeruginosa [1] = assay: Antimicrobial activity against Pseudomonas aeruginosa 1951-00
Pseudomonas aeruginosa [2] = assay: Antimicrobial activity against Pseudomonas aeruginosa 1752-00
Pseudomonas aeruginosa [3] = assay: Antimicrobial activity against Pseudomonas aeruginosa 1753-00
Pseudomonas aeruginosa [4] = assay: Antimicrobial activity against Pseudomonas aeruginosa 1957-00
Pseudomonas aeruginosa [5] = assay: Antimicrobial activity against Pseudomonas aeruginosa 1569-05
Pseudomonas aeruginosa [6] = assay: Antimicrobial activity against Pseudomonas aeruginosa 1570-05
Pseudomonas aeruginosa [7] = assay: Antimicrobial activity against Pseudomonas aeruginosa 1613-09
Pseudomonas aeruginosa [8] = assay: Antimicrobial activity against Pseudomonas aeruginosa 1954-00
Pseudomonas aeruginosa [9] = assay: Antimicrobial activity against Pseudomonas aeruginosa PA-4624
Pseudomonas aeruginosa [10] = assay: Antimicrobial activity against Pseudomonas aeruginosa 1565-05
Pseudomonas aeruginosa [11] = assay: Antimicrobial activity against Pseudomonas aeruginosa 1566-05
Pseudomonas aeruginosa [12] = assay: Antimicrobial activity against Pseudomonas aeruginosa 1567-05
Pseudomonas aeruginosa [13] = assay: Antimicrobial activity against Pseudomonas aeruginosa 1568-05
Pseudomonas aeruginosa [14] = assay: Antimicrobial activity against Pseudomonas aeruginosa 1767-00
Pseudomonas aeruginosa [15] = assay: Antimicrobial activity against Pseudomonas aeruginosa 1768-00
Pseudomonas aeruginosa [16] = assay: Antimicrobial activity against Pseudomonas aeruginosa 1956-00
Pseudomonas aeruginosa [17] = assay: Antimicrobial activity against Pseudomonas aeruginosa PA-75
Pseudomonas aeruginosa [18] = assay: Antimicrobial activity against Pseudomonas aeruginosa 1955-00
Pseudomonas aeruginosa [19] = assay: Antimicrobial activity against Pseudomonas aeruginosa 1561-05
Pseudomonas aeruginosa [20] = assay: Antimicrobial activity against Pseudomonas aeruginosa 1563-00
Pseudomonas aeruginosa [21] = assay: Antimicrobial activity against Pseudomonas aeruginosa 1564-05
Pseudomonas aeruginosa [22] = assay: Antimicrobial activity against Pseudomonas aeruginosa 1615-09
Pseudomonas aeruginosa [23] = assay: Antimicrobial activity against Pseudomonas aeruginosa 1761-00
Pseudomonas aeruginosa [24] = assay: Antimicrobial activity against Pseudomonas aeruginosa 1764-00
Pseudomonas aeruginosa [25] = assay: Antimicrobial activity against Pseudomonas aeruginosa 1765-00
Pseudomonas aeruginosa [26] = assay: Antimicrobial activity against Pseudomonas aeruginosa 1766-00
Pseudomonas aeruginosa [27] = assay: Antimicrobial activity against Pseudomonas aeruginosa 1952-00
Pseudomonas aeruginosa [28] = assay: Antimicrobial activity against Pseudomonas aeruginosa 1953-00
Pseudomonas aeruginosa [29] = assay: Antimicrobial activity against Pseudomonas aeruginosa 1562-05
Pseudomonas aeruginosa [30] = assay: Antimicrobial activity against Pseudomonas aeruginosa 1611-09
Pseudomonas aeruginosa [31] = assay: Antimicrobial activity against Pseudomonas aeruginosa 1614-09
Pseudomonas aeruginosa [32] = assay: Antimicrobial activity against Pseudomonas aeruginosa 1619-08
Pseudomonas aeruginosa [33] = assay: Antimicrobial activity against Pseudomonas aeruginosa 1760-00
Pseudomonas aeruginosa [34] = assay: Antimicrobial activity against Pseudomonas aeruginosa PA-1757
Pseudomonas aeruginosa [35] = assay: Antimicrobial activity against Pseudomonas aeruginosa 1527-08
Pseudomonas aeruginosa [36] = assay: Antimicrobial activity against Pseudomonas aeruginosa PA-4991
Pseudomonas aeruginosa [37] = assay: Antimicrobial activity against Pseudomonas aeruginosa PA-4999
Pseudomonas aeruginosa [38] = assay: Antimicrobial activity against Pseudomonas aeruginosa 1612-09
Pseudomonas aeruginosa [39] = assay: Antimicrobial activity against Pseudomonas aeruginosa PA-4995
Pseudomonas aeruginosa [40] = assay: Antimicrobial activity against Pseudomonas aeruginosa 1513-08
Pseudomonas aeruginosa [41] = assay: Antimicrobial activity against Pseudomonas aeruginosa 1515-08
Pseudomonas aeruginosa [42] = assay: Antimicrobial activity against Pseudomonas aeruginosa PA-4990
Pseudomonas aeruginosa [43] = assay: Antimicrobial activity against Pseudomonas aeruginosa PA-4997
Pseudomonas aeruginosa [44] = assay: Antimicrobial activity against Pseudomonas aeruginosa 1523-08
Pseudomonas aeruginosa [45] = assay: Antimicrobial activity against Pseudomonas aeruginosa PA-4993
Pseudomonas aeruginosa [46] = assay: Antimicrobial activity against Pseudomonas aeruginosa 1509-08
Pseudomonas aeruginosa [47] = assay: Antimicrobial activity against Pseudomonas aeruginosa 1510-08
Pseudomonas aeruginosa [48] = assay: Antimicrobial activity against Pseudomonas aeruginosa 1512-08
Pseudomonas aeruginosa [49] = assay: Antimicrobial activity against Pseudomonas aeruginosa 1514-08
Pseudomonas aeruginosa [50] = assay: Antimicrobial activity against Pseudomonas aeruginosa 1521-08
Pseudomonas aeruginosa [51] = assay: Antimicrobial activity against Pseudomonas aeruginosa 1526-08

## C[C@H]1[C@H](NC(=O)/C(=N\OC(C)(C)C(=O)O)c2csc(N)n2)C(=O)N1C(=O)NS(=O)(=O)n1nc(-c2cc(=O)c(O)c[nH]2)n(C)c1=O
Pseudomonas aeruginosa [1]
  MIC90: 0.5 µg/mL (≈ 0.748 µM)
Pseudomonas aeruginosa [2]
  MIC90: 0.5 µg/mL (≈ 0.748 µM)
Pseudomonas aeruginosa [3]
  MIC90: 0.5 µg/mL (≈ 0.748 µM)
Pseudomonas aeruginosa [4]
  MIC90: 0.125 µg/mL (≈ 0.187 µM)
Pseudomonas aeruginosa [5]
  MIC90: 0.5 µg/mL (≈ 0.748 µM)
Pseudomonas aeruginosa [6]
  MIC90: 0.125 µg/mL (≈ 0.187 µM)
Pseudomonas aeruginosa [7]
  MIC90: 0.125 µg/mL (≈ 0.187 µM)
Pseudomonas aeruginosa [8]
  MIC90: 0.06 µg/mL (≈ 0.0897 µM)
Pseudomonas aeruginosa [9]
  MIC90: 1 µg/mL (≈ 1.5 µM)
Pseudomonas aeruginosa [10]
  MIC90: 0.25 µg/mL (≈ 0.374 µM)
Pseudomonas aeruginosa [11]
  MIC90: 0.25 µg/mL (≈ 0.374 µM)
Pseudomonas aeruginosa [12]
  MIC90: 0.25 µg/mL (≈ 0.374 µM)
Pseudomonas aeruginosa [13]
  MIC90: 0.5 µg/mL (≈ 0.748 µM)
Pseudomonas aeruginosa [14]
  MIC90: 0.25 µg/mL (≈ 0.374 µM)
Pseudomonas aeruginosa [15]
  MIC90: 0.125 µg/mL (≈ 0.187 µM)
Pseudomonas aeruginosa [16]
  MIC90: 0.125 µg/mL (≈ 0.187 µM)
Pseudomonas aeruginosa [17]
  MIC90: 0.5 µg/mL (≈ 0.748 µM)
Pseudomonas aeruginosa [18]
  MIC90: 0.25 µg/mL (≈ 0.374 µM)
Pseudomonas aeruginosa [19]
  MIC90: 1 µg/mL (≈ 1.5 µM)
Pseudomonas aeruginosa [20]
  MIC90: 0.25 µg/mL (≈ 0.374 µM)
Pseudomonas aeruginosa [21]
  MIC90: 0.125 µg/mL (≈ 0.187 µM)
Pseudomonas aeruginosa [22]
  MIC90: 0.25 µg/mL (≈ 0.374 µM)
Pseudomonas aeruginosa [23]
  MIC90: 1 µg/mL (≈ 1.5 µM)
Pseudomonas aeruginosa [24]
  MIC90: 0.25 µg/mL (≈ 0.374 µM)
Pseudomonas aeruginosa [25]
  MIC90: 1 µg/mL (≈ 1.5 µM)
Pseudomonas aeruginosa [26]
  MIC90: 0.5 µg/mL (≈ 0.748 µM)
Pseudomonas aeruginosa [27]
  MIC90: 0.25 µg/mL (≈ 0.374 µM)
Pseudomonas aeruginosa [28]
  MIC90: 0.25 µg/mL (≈ 0.374 µM)
Pseudomonas aeruginosa [29]
  MIC90: 0.25 µg/mL (≈ 0.374 µM)
Pseudomonas aeruginosa [30]
  MIC90: 0.125 µg/mL (≈ 0.187 µM)
Pseudomonas aeruginosa [31]
  MIC90: 0.25 µg/mL (≈ 0.374 µM)
Pseudomonas aeruginosa [32]
  MIC90: 0.03 µg/mL (≈ 0.0449 µM)
Pseudomonas aeruginosa [33]
  MIC90: 0.5 µg/mL (≈ 0.748 µM)
Pseudomonas aeruginosa [34]
  MIC90: 8 µg/mL (≈ 12 µM)
Pseudomonas aeruginosa [35]
  MIC90: 0.5 µg/mL (≈ 0.748 µM)
Pseudomonas aeruginosa [36]
  MIC90: 0.5 µg/mL (≈ 0.748 µM)
Pseudomonas aeruginosa [37]
  MIC90: 0.5 µg/mL (≈ 0.748 µM)
Pseudomonas aeruginosa [38]
  MIC90: 1 µg/mL (≈ 1.5 µM)
Pseudomonas aeruginosa [39]
  MIC90: 0.125 µg/mL (≈ 0.187 µM)
Pseudomonas aeruginosa [40]
  MIC90: 1 µg/mL (≈ 1.5 µM)
Pseudomonas aeruginosa [41]
  MIC90: 0.5 µg/mL (≈ 0.748 µM)
Pseudomonas aeruginosa [42]
  MIC90: 0.5 µg/mL (≈ 0.748 µM)
Pseudomonas aeruginosa [43]
  MIC90: 0.5 µg/mL (≈ 0.748 µM)
Pseudomonas aeruginosa [44]
  MIC90: 0.5 µg/mL (≈ 0.748 µM)
Pseudomonas aeruginosa [45]
  MIC90: 0.125 µg/mL (≈ 0.187 µM)
Pseudomonas aeruginosa [46]
  MIC90: 4 µg/mL (≈ 5.98 µM)
Pseudomonas aeruginosa [47]
  MIC90: 8 µg/mL (≈ 12 µM)
Pseudomonas aeruginosa [48]
  MIC90: 0.5 µg/mL (≈ 0.748 µM)
Pseudomonas aeruginosa [49]
  MIC90: 1 µg/mL (≈ 1.5 µM)
Pseudomonas aeruginosa [50]
  MIC90: 1 µg/mL (≈ 1.5 µM)
Pseudomonas aeruginosa [51]
  MIC90: 0.25 µg/mL (≈ 0.374 µM)

## C[C@H]1[C@H](NC(=O)/C(=N\OC(C)(C)C(=O)O)c2csc(N)n2)C(=O)N1C(=O)NS(=O)(=O)n1nc(-c2cc(=O)c(O)c[nH]2)n(CC(N)=O)c1=O
Pseudomonas aeruginosa [1]
  MIC90: 0.25 µg/mL (≈ 0.351 µM)
Pseudomonas aeruginosa [2]
  MIC90: 0.25 µg/mL (≈ 0.351 µM)
Pseudomonas aeruginosa [3]
  MIC90: 0.25 µg/mL (≈ 0.351 µM)
Pseudomonas aeruginosa [4]
  MIC90: 0.125 µg/mL (≈ 0.176 µM)
Pseudomonas aeruginosa [5]
  MIC90: 0.25 µg/mL (≈ 0.351 µM)
Pseudomonas aeruginosa [6]
  MIC90: 0.25 µg/mL (≈ 0.351 µM)
Pseudomonas aeruginosa [7]
  MIC90: 0.5 µg/mL (≈ 0.703 µM)
Pseudomonas aeruginosa [8]
  MIC90: 0.06 µg/mL (≈ 0.0843 µM)
Pseudomonas aeruginosa [9]
  MIC90: 0.25 µg/mL (≈ 0.351 µM)
Pseudomonas aeruginosa [10]
  MIC90: 0.125 µg/mL (≈ 0.176 µM)
Pseudomonas aeruginosa [11]
  MIC90: 0.25 µg/mL (≈ 0.351 µM)
Pseudomonas aeruginosa [12]
  MIC90: 0.125 µg/mL (≈ 0.176 µM)
Pseudomonas aeruginosa [13]
  MIC90: 0.25 µg/mL (≈ 0.351 µM)
Pseudomonas aeruginosa [14]
  MIC90: 0.25 µg/mL (≈ 0.351 µM)
Pseudomonas aeruginosa [15]
  MIC90: 0.06 µg/mL (≈ 0.0843 µM)
Pseudomonas aeruginosa [16]
  MIC90: 0.06 µg/mL (≈ 0.0843 µM)
Pseudomonas aeruginosa [17]
  MIC90: 0.25 µg/mL (≈ 0.351 µM)
Pseudomonas aeruginosa [18]
  MIC90: 0.125 µg/mL (≈ 0.176 µM)
Pseudomonas aeruginosa [19]
  MIC90: 0.5 µg/mL (≈ 0.703 µM)
Pseudomonas aeruginosa [20]
  MIC90: 0.125 µg/mL (≈ 0.176 µM)
Pseudomonas aeruginosa [21]
  MIC90: 0.125 µg/mL (≈ 0.176 µM)
Pseudomonas aeruginosa [22]
  MIC90: 0.25 µg/mL (≈ 0.351 µM)
Pseudomonas aeruginosa [23]
  MIC90: 0.5 µg/mL (≈ 0.703 µM)
Pseudomonas aeruginosa [24]
  MIC90: 0.25 µg/mL (≈ 0.351 µM)
Pseudomonas aeruginosa [25]
  MIC90: 1 µg/mL (≈ 1.41 µM)
Pseudomonas aeruginosa [26]
  MIC90: 16 µg/mL (≈ 22.5 µM)
Pseudomonas aeruginosa [27]
  MIC90: 0.25 µg/mL (≈ 0.351 µM)
Pseudomonas aeruginosa [28]
  MIC90: 0.5 µg/mL (≈ 0.703 µM)
Pseudomonas aeruginosa [29]
  MIC90: 0.125 µg/mL (≈ 0.176 µM)
Pseudomonas aeruginosa [30]
  MIC90: 0.06 µg/mL (≈ 0.0843 µM)
Pseudomonas aeruginosa [31]
  MIC90: 0.25 µg/mL (≈ 0.351 µM)
Pseudomonas aeruginosa [32]
  MIC90: 0.06 µg/mL (≈ 0.0843 µM)
Pseudomonas aeruginosa [33]
  MIC90: 1 µg/mL (≈ 1.41 µM)
Pseudomonas aeruginosa [34]
  MIC90: 4 µg/mL (≈ 5.62 µM)
Pseudomonas aeruginosa [35]
  MIC90: 0.25 µg/mL (≈ 0.351 µM)
Pseudomonas aeruginosa [36]
  MIC90: 0.25 µg/mL (≈ 0.351 µM)
Pseudomonas aeruginosa [37]
  MIC90: 0.25 µg/mL (≈ 0.351 µM)
Pseudomonas aeruginosa [38]
  MIC90: 0.25 µg/mL (≈ 0.351 µM)
Pseudomonas aeruginosa [39]
  MIC90: 0.06 µg/mL (≈ 0.0843 µM)
Pseudomonas aeruginosa [40]
  MIC90: 0.5 µg/mL (≈ 0.703 µM)
Pseudomonas aeruginosa [41]
  MIC90: 0.25 µg/mL (≈ 0.351 µM)
Pseudomonas aeruginosa [42]
  MIC90: 0.25 µg/mL (≈ 0.351 µM)
Pseudomonas aeruginosa [43]
  MIC90: 0.25 µg/mL (≈ 0.351 µM)
Pseudomonas aeruginosa [44]
  MIC90: 0.25 µg/mL (≈ 0.351 µM)
Pseudomonas aeruginosa [45]
  MIC90: 0.06 µg/mL (≈ 0.0843 µM)
Pseudomonas aeruginosa [46]
  MIC90: 1 µg/mL (≈ 1.41 µM)
Pseudomonas aeruginosa [47]
  MIC90: 2 µg/mL (≈ 2.81 µM)
Pseudomonas aeruginosa [48]
  MIC90: 0.25 µg/mL (≈ 0.351 µM)
Pseudomonas aeruginosa [49]
  MIC90: 0.5 µg/mL (≈ 0.703 µM)
Pseudomonas aeruginosa [50]
  MIC90: 0.5 µg/mL (≈ 0.703 µM)
Pseudomonas aeruginosa [51]
  MIC90: 0.5 µg/mL (≈ 0.703 µM)
